Assay results from ChEMBL document CHEMBL1201862, “PubChem BioAssay data set” (2004).
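Interpolation was linear, between the two tested concentrations surrounding the appropriate level; five concentrations were tested over 48 hours in 96-well plates. The concentration for 50% growth inhibition is given as GI50.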 Active and inactive are the calls of the source. No stated cut-off is given here; in the data, active = GI50 up to about 1.1 µM and inactive = higher. Bridge positions count the residues as written; N and C are the ends. Square brackets hold non-standard residues; d marks the D form. Peptide text beside a SMILES is read from it. I, II: the chains in the order shown. * marks the point of attachment. Quinoxaline2carbonyl = O=C(c1cnc2ccccc2n1)*; NMeV = CN[CH](C(=O)O)C(C)C; NMeC = CN[CH](CS)C(=O)O

Key:
Assay in all cases: DTP human tumour cell line panel, 48 h
NCI-H23 = tested on: NCI-H23
HCT-15 = tested on: HCT-15
K562 = tested on: K562
IGROV-1 = tested on: IGROV-1
SK-MEL-2 = tested on: SK-MEL-2
786-0 = tested on: 786-0
NCI-H460 = tested on: NCI-H460
MDA-MB-435 = tested on: MDA-MB-435
SR = tested on: SR
SK-MEL-5 = tested on: SK-MEL-5
UO-31 = tested on: UO-31
MCF7 = tested on: MCF7
MDA-N = tested on: MDA-N
OVCAR-3 = tested on: OVCAR-3
HL-60 = tested on: HL-60
Malme-3M = tested on: Malme-3M
PC-3 = tested on: PC-3
HCT-116 = tested on: HCT-116
OVCAR-5 = tested on: OVCAR-5
HOP-18 = tested on: HOP-18

Row | Compound | GI50 (NCI-H23) | GI50 (HCT-15) | GI50 (K562) | GI50 (IGROV-1) | GI50 (SK-MEL-2) | GI50 (786-0) | GI50 (NCI-H460) | GI50 (MDA-MB-435) | GI50 (SR) | GI50 (SK-MEL-5) | GI50 (UO-31) | GI50 (MCF7) | GI50 (MDA-N) | GI50 (OVCAR-3) | GI50 (HL-60) | GI50 (Malme-3M) | GI50 (PC-3) | GI50 (HCT-116) | GI50 (OVCAR-5) | GI50 (HOP-18)
1 | COc1ccc(CCn2cnc3ccccc32)cc1 | > 100 µM (inactive) | > 100 µM | > 100 µM (inactive) | > 100 µM (inactive) | > 100 µM (inactive) | > 100 µM (inactive) | > 100 µM (inactive) | > 100 µM (inactive) | > 100 µM (inactive) | > 100 µM (inactive) | > 100 µM (inactive) | > 100 µM (inactive) | > 100 µM (inactive) | > 100 µM (inactive) | > 100 µM (inactive) | > 100 µM (inactive) | > 100 µM (inactive) | > 100 µM (inactive) | > 100 µM (inactive) | 
2 | COCCOCOC(CCCCO)c1cc(C)c(O[Si](C)(C)C(C)(C)C)c(C)c1 (stereo not drawn) | 5.55 µM (inactive) | 7.36 µM | 3.22 µM (inactive) | 12.2 µM (inactive) | 8.89 µM (inactive) | 11.1 µM (inactive) | 5.24 µM (inactive) |  |  | 2.64 µM (inactive) | 4.11 µM (inactive) |  |  | 5.83 µM (inactive) | 1.59 µM (inactive) | 2.47 µM (inactive) |  |  | 13.7 µM (inactive) | 16.9 µM (inactive)
3 | CC1NC(=O)C(NC(=O)c2cnc3ccccc3n2)COC(=O)C(C(C)C)N(C)C(=O)C2CSSCC(C(=O)N(C)C(C(C)C)C(=O)OCC(NC(=O)c3cnc4ccccc4n3)C(=O)NC(C)C(=O)N2C)N(C)C1=O (stereo not drawn) (I: Quinoxaline2carbonyl-SA[NMeC][NMeV] / II: Quinoxaline2carbonyl-SA[NMeC][NMeV]; ester I:1-II:C, I:C-II:1; disulfide I:3-II:3; configuration not given here) | < 0.01 µM (active) | < 0.01 µM | < 0.01 µM (active) | < 0.01 µM (active) | < 0.01 µM (active) | < 0.01 µM (active) | < 0.01 µM (active) | < 0.01 µM (active) | 0.114 µM (active) | 0.0316 µM (active) | < 0.01 µM (active) | < 0.01 µM (active) | < 0.01 µM (active) | < 0.01 µM (active) | < 0.01 µM (active) | < 0.01 µM (active) | < 0.01 µM (active) | < 0.01 µM (active) | < 0.01 µM (active) | 
4 | COC(=O)CCc1ccc2c(c1)[C@H](C(=O)OC)[C@@H](c1ccc(O)cc1)O2 | 71.6 µM (inactive) | 58.9 µM | 61.1 µM (inactive) | > 100 µM (inactive) | > 100 µM (inactive) | > 10 µM (inactive) | 58.9 µM (inactive) | > 100 µM (inactive) | 93.5 µM (inactive) | 40.1 µM (inactive) | > 100 µM (inactive) | 72.9 µM (inactive) | > 100 µM (inactive) | > 100 µM (inactive) | 90.2 µM (inactive) | > 100 µM (inactive) | > 100 µM (inactive) | 21.5 µM (inactive) | > 100 µM (inactive) | 
5 | CC1CCCN1CCCOC(=O)c1ccc(OC2C=CCCC2)cc1 (stereo not drawn) | 25.4 µM (inactive) | 23.3 µM | 18.9 µM (inactive) | 21.4 µM (inactive) | > 100 µM (inactive) | 22.3 µM (inactive) | 17.1 µM (inactive) | > 100 µM (inactive) | 28.1 µM (inactive) | 19.2 µM (inactive) | 34.2 µM (inactive) | 25.1 µM (inactive) | 39.5 µM (inactive) | 39.2 µM (inactive) | 17.4 µM (inactive) | 18.9 µM (inactive) | 22.4 µM (inactive) | 17.2 µM (inactive) | 71.9 µM (inactive) | 
6 | CC(C)(C)OC(=O)N1CCCC1C(=O)NC(c1ccccc1)c1ccccc1 (stereo not drawn) | > 100 µM (inactive) | > 100 µM | > 100 µM (inactive) | > 100 µM (inactive) | > 100 µM (inactive) | > 100 µM (inactive) | > 100 µM (inactive) | > 100 µM (inactive) | > 100 µM (inactive) | > 100 µM (inactive) | > 100 µM (inactive) | > 100 µM (inactive) | > 100 µM (inactive) | > 100 µM (inactive) | > 100 µM (inactive) | > 100 µM (inactive) | > 100 µM (inactive) | > 100 µM (inactive) | > 100 µM (inactive) | 
7 | CC1(C)OCC(C2OC3OC(C)(C)OC3C2c2ccccc2)O1 (stereo not drawn) | 22.2 µM (inactive) | 24.2 µM | 30.2 µM (inactive) | 41.1 µM (inactive) | 22.1 µM (inactive) | 58.6 µM (inactive) | 39.8 µM (inactive) | 37.8 µM (inactive) | 28.8 µM (inactive) | 17.1 µM (inactive) | 44.8 µM (inactive) | 50.7 µM (inactive) | 37 µM (inactive) | 34.4 µM (inactive) | 18.3 µM (inactive) | 42.2 µM (inactive) | 24.3 µM (inactive) | 36.4 µM (inactive) | 91.6 µM (inactive) | 
8 | C=CCCC(=O)CC(=O)OCc1ccccc1 | 8.47 µM (inactive) | > 100 µM | > 100 µM (inactive) | > 100 µM (inactive) | > 100 µM (inactive) | > 100 µM (inactive) | > 100 µM (inactive) |  |  | > 100 µM (inactive) | > 100 µM (inactive) |  |  | > 100 µM (inactive) | > 100 µM (inactive) | > 100 µM (inactive) |  | > 100 µM (inactive) | > 100 µM (inactive) | > 100 µM (inactive)
